Results published in ChEMBL document CHEMBL6087446, “Hypoxia Activated Nitric Oxide Donor Compounds for the Prevention and Treatment of Myocardial Hypoxia-Induced Injury” (J Med Chem, 2025).
Activity calls are given as the source filed them. The calls are words filed in the database; no cut-off is given here.

Columns and labels:
H9c2 [1] = assay: Induction of NO release in rat H9c2 cells under normoxic condition at 10 uM measured for 4 hrs by Griess reagent assay relative to control; type: functional
H9c2 [2] = assay: Prevention of hypoxia-induced TSP1 expression in rat H9c2 cells assessed as inhibition of TSP1 overexpression at 10 uM measured after 4 hrs incubation; type: functional, cell-based
H9c2 [3] = assay: Prevention of hypoxia-induced TSC2-P expression in rat H9c2 cells assessed as inhibition of TSC2-P overexpression at 10 uM measured after 4 hrs incubation; type: functional, cell-based
Mus musculus [4] = assay: Prevention of myocardial hypoxia injury in isoproterenol-induced male C57 mouse myocardial injury model assessed as antihypertrophic effect at 8 mg/kg, ip once daily for 3 consecutive days; type: functional, organism-based; conditions: time 3.0 day
Mus musculus [5] = assay: Prevention of myocardial hypoxia injury in isoproterenol-induced male C57 mouse myocardial injury model assessed as heart weight ratio at 8 mg/kg, ip once daily for 3 consecutive days (reference value: 0.60%); type: functional; conditions: time 3 day
Mus musculus [6] = assay: Prevention of myocardial hypoxia injury in isoproterenol-induced male C57 mouse myocardial injury model assessed as increase in NO level in heart tissue at 8 mg/kg, ip once daily for 3 consecutive days; type: functional, organism-based; conditions: time 3.0 day
Mus musculus [7] = assay: Prevention of myocardial hypoxia injury in isoproterenol-induced male C57 mouse myocardial injury model assessed as prevention of lamellar collagen fiber deposition at 8 to 16 mg/kg, ip once daily for 3 consecutive days by Masson staining based analysis; type: functional, organism-based; conditions: dose 8-16 mg/kg, time 3.0 day
Mus musculus [8] = assay: Prevention of myocardial hypoxia injury in isoproterenol-induced male C57 mouse myocardial injury model assessed as decrease in ACE expression at 8 to 16 mg/kg, ip once daily for 3 consecutive days by immunohistochemistry; type: functional, organism-based; conditions: dose 8-16 mg/kg, time 3.0 day
Mus musculus [9] = assay: Prevention of myocardial hypoxia injury in isoproterenol-induced male C57 mouse myocardial injury model assessed as reduction in creatine kinase-MB (CK-MB) at 5 mg/kg, ip once daily for 3 consecutive days by immunohistochemistry; type: functional, organism-based; conditions: time 3.0 day
[10] = Cmax in female Balb/c mouse at 8 mg/kg, ip measured up to 24 hrs by LC-MS/MS analysis; type: ADME, organism-based; conditions: in vivo
Mus musculus [11] = assay: Prevention of myocardial hypoxia injury in isoproterenol-induced male C57 mouse myocardial injury model assessed as increase in NO level in myocardial tissue at 8 to 16 mg/kg, ip once daily for 3 consecutive days; type: functional, organism-based; conditions: dose 8-16 mg/kg, time 3.0 day
Mus musculus [12] = assay: Prevention of myocardial hypoxia injury in isoproterenol-induced male C57 mouse myocardial injury model assessed as increase in NO level in myocardial tissue at 8 to 16 mg/kg, IG once daily for 3 consecutive days; type: functional, organism-based; conditions: dose 8-16 mg/kg, time 3.0 day
[13] = Toxicity in male C57 mouse assessed as mortality at 900 mg/kg, ip measured up to 14 days observation period; type: organism-based; conditions: in vivo, 336 h, time < 14 day

Q: With CN(N=O)c1ccc(OCc2ccc([N+](=O)[O-])c(F)c2)cc1 as the compound, how does the Activity (H9c2 [1]) read?
A: 20%

Q: What about the Activity (H9c2 [2]) of the same compound?
A: Active

Q: And the Activity (H9c2 [3])?
A: Active

Q: What about the Activity (Mus musculus [4]) of the same compound?
A: Active

Q: What about the Activity (Mus musculus [5]) of the same compound?
A: 0.54%

Q: What about the Activity (Mus musculus [6]) of the same compound?
A: Active

Q: What about the Activity (Mus musculus [7]) of the same compound?
A: Active

Q: What about the Activity (Mus musculus [8]) of the same compound?
A: Active

Q: And the Activity (Mus musculus [9])?
A: Active

Q: And the Cmax [10]?
A: 450 ng/mL

Q: What about the Activity (Mus musculus [11]) of the same compound?
A: Active

Q: And the Activity (Mus musculus [12])?
A: Active

Q: What about the Activity [13] of the same compound?
A: Non-toxic
